Test systems include PC-3; HCC 2998; HCT-116; IGROV-1; SR; TK-10; HT-29; COLO 205; Malme-3M; HL-60; Hs-578T; CCRF-CEM; MOLT-4; MCF7; HCT-15; SNB-75; A549; NCI-H23; T47D; UO-31.
Experiment in all cases: NCI tumour cell line growth inhibition, 48 h

SMILES strings stand for the structures.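 48-hour exposure; five concentrations; linearly interpolated endpoints. GI50: concentration for 50% inhibition of growth.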 Active and inactive are the calls of the source. Cut-off read from the data, not from the text of the source: active = GI50 up to about 1.1 µM and inactive = higher. Where only a bound is given, the exact number is not on record here.

On to `COCCN(C(C)=O)C1CCC2(SCCS2)c2[nH]c3ccccc3c21` (stereo unspecified), for which the GI50 in the assay with PC-3 is > 100 µM (inactive); in the assay on HCC 2998, > 100 µM (inactive); with HCT-116, > 100 µM (inactive); in the assay with IGROV-1 it was > 100 µM (inactive); in the assay with SR, 42.5 µM (inactive); with TK-10, > 100 µM (inactive). For the same compound, the GI50 in the assay with HT-29, in the assay with COLO 205, in the assay on Malme-3M, in the assay with HL-60, in the assay with Hs-578T and in the assay on CCRF-CEM was > 100 µM (inactive) in each case. The GI50 with MOLT-4 is 56.9 µM (inactive); in the assay on MCF7 it was > 100 µM (inactive); in the assay on HCT-15, greater than 100 µM; in the assay on SNB-75, > 100 µM (inactive); in the assay with A549, > 100 µM (inactive); with NCI-H23 it was > 100 µM (inactive).
As for `O=C(O)c1cccc(S(=O)(=O)NN2C(=O)CSC2c2c(O)ccc3ccccc23)c1` (stereo unspecified), the GI50 was 33 µM (inactive) in the assay with PC-3; 52.6 µM (inactive) with HCC 2998; 19.6 µM (inactive) with HCT-116; 18 µM (inactive) in the assay with IGROV-1; 24.9 µM (inactive) in the assay with SR; > 100 µM (inactive) in the assay on TK-10. Besides, the GI50 in the assay on HT-29 is 29.9 µM (inactive); in the assay with COLO 205, 38 µM (inactive); in the assay on Malme-3M, 26.5 µM (inactive); in the assay with HL-60, 28 µM (inactive); in the assay on CCRF-CEM it was 16 µM (inactive); in the assay on MOLT-4, 19 µM (inactive). Besides, the GI50 was 42.5 µM in the assay with HCT-15; 30.6 µM (inactive) in the assay on SNB-75; 41.5 µM (inactive) in the assay with A549; 21.7 µM (inactive) in the assay with NCI-H23; 22.5 µM (inactive) in the assay on T47D; 33.4 µM (inactive) in the assay with UO-31.
Take `COc1ccc(CNC(=O)NCn2cc(-c3ccccc3)nn2)cc1`: the GI50 in the assay on PC-3 is > 100 µM (inactive); in the assay with HCC 2998 it was 14.1 µM (inactive); in the assay on HCT-116, > 100 µM (inactive); in the assay on IGROV-1, > 100 µM (inactive); in the assay on SR, > 100 µM (inactive); with TK-10, > 100 µM (inactive). Further, the GI50 with HT-29, in the assay with COLO 205, in the assay with Malme-3M, in the assay with HL-60, in the assay with CCRF-CEM and with MOLT-4 was > 100 µM (inactive) in each case. Moreover, the GI50 in the assay on MCF7 is > 100 µM (inactive); with HCT-15, greater than 100 µM; with SNB-75 it was > 100 µM (inactive); in the assay with A549 it was > 100 µM (inactive); in the assay with NCI-H23, > 100 µM (inactive).
`Nc1ncnc2c1ncn2C1OC(COC2C(CO)OC(OC(C(=O)O)C(O)C(OP(=O)(O)O)C(O)C(=O)O)C(O)C2O)C(O)C1O` (stereo unspecified): the GI50 in the assay with PC-3 was > 100 µM (inactive); in the assay on HCC 2998, > 100 µM (inactive); in the assay with HCT-116 it was > 100 µM (inactive); in the assay with IGROV-1, > 100 µM (inactive); with SR, 15.7 µM (inactive); in the assay on TK-10, > 100 µM (inactive). In addition, the GI50 in the assay on HT-29 is > 100 µM (inactive); with COLO 205, > 100 µM (inactive); in the assay with Malme-3M it was 45.7 µM (inactive); in the assay on HL-60, > 100 µM (inactive); in the assay with Hs-578T, 14.9 µM (inactive); with CCRF-CEM, > 100 µM (inactive). Also, the GI50 in the assay on MOLT-4 was > 100 µM (inactive); in the assay on MCF7 it was > 100 µM (inactive); in the assay on HCT-15, greater than 100 µM; in the assay with SNB-75, > 100 µM (inactive); with A549 it was > 100 µM (inactive); with NCI-H23, > 100 µM (inactive).
Take `COC(=O)[C@@H]1[C@H](O)CCC2=C(CC(=O)c3ccoc3)[C@H](C)CC[C@]21C`: the GI50 is 23.4 µM (inactive) with PC-3; > 50 µM (inactive) in the assay on HCC 2998; 22.6 µM (inactive) in the assay with HCT-116; > 50 µM (inactive) in the assay with IGROV-1; > 50 µM (inactive) with TK-10; 44.3 µM (inactive) in the assay on HT-29. Further, the GI50 with COLO 205 was > 50 µM (inactive); in the assay with Malme-3M, > 50 µM (inactive); in the assay on Hs-578T, > 50 µM (inactive); in the assay on MCF7, 26.4 µM (inactive); with HCT-15, 46.1 µM; in the assay with SNB-75, 16.7 µM (inactive). Also, the values for the GI50 in the assay on A549, with NCI-H23 and in the assay on UO-31 were > 50 µM (inactive), 30.3 µM (inactive) and 19.5 µM (inactive), respectively.
In the case of `C=C1CCc2ccccc2C1=O`, the GI50 is > 100 µM (inactive) in the assay on PC-3; > 100 µM (inactive) in the assay with HCC 2998; > 100 µM (inactive) in the assay on HCT-116; > 100 µM (inactive) in the assay on IGROV-1; 19.2 µM (inactive) in the assay on SR; > 100 µM (inactive) in the assay with TK-10. For the same compound, the GI50 in the assay on HT-29 was 47.2 µM (inactive); with COLO 205, > 100 µM (inactive); with Malme-3M, > 100 µM (inactive); with HL-60 it was > 100 µM (inactive); in the assay with Hs-578T it was > 100 µM (inactive); with CCRF-CEM it was 45.8 µM (inactive). Moreover, the GI50 is 64.7 µM (inactive) with MOLT-4; 56 µM (inactive) in the assay on MCF7; greater than 100 µM in the assay with HCT-15; > 100 µM (inactive) in the assay on SNB-75; > 100 µM (inactive) in the assay with A549; > 100 µM (inactive) with NCI-H23. Moreover, the GI50 in the assay with UO-31 was > 100 µM (inactive).
Take `C[C@]12CC[C@@H]3c4ccc(OC(=O)c5ccccc5)cc4CC[C@H]3[C@@H]1CC[C@@H]2Oc1c2ccccc2nc2ccccc12`: the GI50 in the assay on PC-3 is 8.93 µM (inactive); with HCC 2998 it was 7.05 µM (inactive); in the assay with HCT-116, 7.8 µM (inactive); in the assay on IGROV-1 it was 12.5 µM (inactive); in the assay with SR, 10 µM (inactive); with TK-10 it was 17.2 µM (inactive). The GI50 in the assay on HT-29 is 5.83 µM (inactive); in the assay with COLO 205, 15.1 µM (inactive); in the assay with Malme-3M, 7.94 µM (inactive); in the assay on HL-60 it was 2.95 µM (inactive); with Hs-578T, 5.5 µM (inactive); in the assay on CCRF-CEM, 0.0161 µM (active). The GI50 in the assay with MOLT-4 is 8.87 µM (inactive); with MCF7, 17 µM (inactive); in the assay with HCT-15, 9.73 µM; with SNB-75, 10 µM (inactive); in the assay with A549, 6.62 µM (inactive); in the assay with NCI-H23 it was 12.4 µM (inactive). In addition, the GI50 in the assay on UO-31 was 13.2 µM (inactive).
For `COc1cc2c(cc1OCCCCN1C(=O)c3cccc4cccc(c34)C1=O)N=C[C@@H]1CCCN1C2=O`, the GI50 with PC-3 is 5.27 µM (inactive); with HCC 2998 it was 6.97 µM (inactive); with HCT-116 it was 3.59 µM (inactive); with IGROV-1 it was 2.07 µM (inactive); in the assay on TK-10 it was 2.47 µM (inactive); in the assay with HT-29, 5.73 µM (inactive). Moreover, the GI50 with COLO 205 is 2.72 µM (inactive); in the assay on Malme-3M, 3.72 µM (inactive); with CCRF-CEM, 1.64 µM (inactive); in the assay on MOLT-4 it was 3.25 µM (inactive); in the assay on MCF7 it was 1.69 µM (inactive); in the assay on HCT-15, 3.99 µM. The GI50 in the assay on A549 is 5.68 µM (inactive); in the assay with NCI-H23, 3.74 µM (inactive); with T47D, 7.93 µM (inactive); in the assay on UO-31 it was 1.68 µM (inactive).
In the case of `Nc1cc(N2CCCC2)nc(=O)n1-c1ccccc1`, the GI50 in the assay on PC-3 was > 100 µM (inactive); with HCC 2998, 20.7 µM (inactive); with HCT-116, > 100 µM (inactive); in the assay with IGROV-1, > 100 µM (inactive); in the assay on SR, > 100 µM (inactive); with TK-10, > 100 µM (inactive). For the same compound, the GI50 in the assay on HT-29, in the assay with COLO 205, with Malme-3M, in the assay on HL-60, in the assay with CCRF-CEM and in the assay with MOLT-4 was > 100 µM (inactive) throughout. Also, the GI50 in the assay on MCF7 was > 100 µM (inactive); in the assay with HCT-15, greater than 100 µM; in the assay on SNB-75 it was > 100 µM (inactive); in the assay on A549 it was > 100 µM (inactive); with NCI-H23, > 100 µM (inactive).
With `N=C(CC/C(N)=N/O)NO`, the GI50 in the assay on PC-3, in the assay on HCC 2998, in the assay with HCT-116, in the assay with IGROV-1, in the assay with SR and with TK-10 was > 100 µM (inactive) throughout. Further, the GI50 in the assay on HT-29 was > 100 µM (inactive); in the assay with Malme-3M it was > 100 µM (inactive); with Hs-578T, > 100 µM (inactive); in the assay with MOLT-4 it was > 100 µM (inactive); in the assay with HCT-15, greater than 100 µM; in the assay on SNB-75, > 100 µM (inactive). For the same compound, the GI50 in the assay with A549, in the assay on NCI-H23, in the assay with T47D and in the assay with UO-31 was > 100 µM (inactive) in each case.
With `COc1ccccc1-c1c(C#N)c(N)[nH]c(=S)c1C#N`, the GI50 in the assay on PC-3 was 32.1 µM (inactive); in the assay with HCC 2998, 74.3 µM (inactive); in the assay on HCT-116, 41.2 µM (inactive); in the assay with IGROV-1, 92.3 µM (inactive); in the assay on SR, 46.5 µM (inactive); in the assay with TK-10, > 100 µM (inactive). In addition, the GI50 was 65.6 µM (inactive) in the assay on HT-29; 53.6 µM (inactive) in the assay on COLO 205; 80.4 µM (inactive) in the assay on Malme-3M; 34.7 µM (inactive) in the assay with HL-60; 30.9 µM (inactive) with Hs-578T; 11.5 µM (inactive) in the assay with MOLT-4. Besides, the GI50 in the assay on MCF7 is 44.5 µM (inactive); with HCT-15, greater than 100 µM; in the assay with A549, 83 µM (inactive); in the assay with NCI-H23, > 100 µM (inactive); in the assay on UO-31 it was 93.1 µM (inactive).
Consider `C=C1CCC(OC(C)=O)C2(C)C(OC(C)=O)CC3OC3(C)C2C(OC(C)=O)C2C(C)C(=O)OC2C1Cl` (stereo unspecified), for which the GI50 in the assay on HCC 2998, in the assay on HCT-116, in the assay on IGROV-1, in the assay on SR, in the assay with TK-10 and in the assay on HT-29 was > 100 µM (inactive) throughout. The GI50 is > 100 µM (inactive) in the assay on COLO 205; > 100 µM (inactive) with Malme-3M; > 100 µM (inactive) in the assay on HL-60; > 100 µM (inactive) with CCRF-CEM; > 100 µM (inactive) with MOLT-4; greater than 100 µM in the assay on HCT-15. Besides, the GI50 with SNB-75, with A549, in the assay with NCI-H23 and in the assay on UO-31 was > 100 µM (inactive) each time.

The record behind these values is ChEMBL document CHEMBL1201862, “PubChem BioAssay data set” (2004).
